Reference: patent US7589075B2, “Use of an adenosine A3 receptor agonist for inhibition of viral replication” (Can-Fite Biopharma Ltd., priority 2001, dated 2009)

Key:
Type in all cases: cell-based
[1] = system: HIV-1 isolate JR-FL in primary human fetal astrocytes; test: p24 ELISA, HIV replication in JR-FL infected astroglial cells; conditions: for p24 pg/mL Day 5: Astroglia/JR-FL, 0.01 (μM) every 24 hours, culture medium 5 days after HIV infection, HIV control 22.83; for amount of p24 protein in culture medium from HIV infected cells in comparison to untreated HIV controls: summary statement for Tables 1 to 3 (astroglia and microglia, JR-FL and SF162)
Protocol: (§1) Purified primary human fetal astrocytes and microgial cells were prepared from 16 to 20 week old human fetal brain tissue by a modified procedure based on the methods of Cole and de Vellis^11, and Yong and Ante^13. Brain tissue was washed in ice-cold Hank's Balanced Salt Solution (HBSS) containing the antibiotics gentamycin and amphotericin B. Blood vessels and meninges were removed and the tissue was minced into small pieces. After mincing, the tissue was enzymatically dissociated by incubation in 0.05% trypsin and mechanically disrupted by passing several times over a 75 μm nylon mesh filter. The resulting single cell suspension was washed, pelleted and plated at a density of 2-10×10^6 cells per 162 cm^2 flask in DMEM:F12 containing 10% fetal calf serum, insulin, gentamycin, and L-glutamine. After 7-10 days of growth, microglial cells were isolated by placement on rotary shaker at 200 rpm in a 37° C. incubator overnight. The non-adherent cells were removed and allowed to attach to a new flask for 1 to 3 h. Following attachment, the cells were washed and refed with media containing 10% fetal calf serum, insulin, gentamycin, L-glutamine, and NI supplement. Astrocytes were subcultured from adherent cells in media containing 15% fetal calf serum, insulin, gentamycin, and L-glutamine and contaminating microglia were removed by repeated rotary shaking. Cultured astrocytic and microglial cells were plated at a density of 2.5×10^5 per well into 6 well plates for subsequent infection.
(§2) Brain derived primary HIV-1 isolates SF162 and JR-FL were cultured in human peripheral blood mononuclear cells (PBMC) essentially as described by Gartner and Popovic^12. PBMC were isolated from human buffy coat by fico gradient and plated at a density of 2.5×10^6 per ml in RPMI containing 10% fet calf serum and gentamycin. Cells were stimulated by the addition of 5 ug/ml phytohemagglutinin (PHA) for 48 h. After stimulation, cells were infected will either SF162 or JR-FL and cultured for 7 to 10 days until high titres of HIV-1 we detected in the supernatant by p24 ELISA assay. When viral production was optimal, the cells were pelleted, the supernatant containing HIV-1 was aliquoted and stored at −70° C. until use. P24 ELISA assay was performed on an aliquoted stock to determine the viral titre.
2.5×10^5 microglial or astrocytic cells were plated per well into 6-we plates. The next day, cells were washed and refed with fresh medium. 2×10^4 p2units of either SF 162 or JR-FL virus was added per well in a total of 1 ml of vir inoculum. In control experiments, the virus was not added. Cells were incubated with virus overnight at 37° C., washed extensively with PBS, and refed with […] fresh medium. Cultures were treated with IB-MECA or CI-IB-MECA at concentration of 0.01 μM every 24 hours. […]

[2] = system: HIV-1 isolate SF162 in primary human fetal astrocytes; test: p24 ELISA, HIV replication in SF162 infected astroglia; conditions: Astroglia/SF-162; 0.01 (μM) every 24 hours; culture medium 5 days after infection; HIV control 313.38
Protocol: as §1, with “Following attachment, the cells were washed and refed with media containing 10% fetal calf serum, insulin, gentamycin, L-glutamine, and NI supplement. Astrocytes were subcultured from adherent cells in media containing 15% fetal calf serum, insulin, gentamycin, and L-glutamine and contaminating microglia were removed by repeated rotary shaking. Cultured astrocytic and microglial cells were plated at a density of 2.5×10^5 per well into 6 well plates for subsequent infection.” left out
Brain derived primary HIV-1 isolates SF162 and JR-FL were cultured in human peripheral blood mononuclear cells (PBMC) essentially as described by Gartner and Popovic^12. […] After stimulation, cells were infected will either SF162 or JR-FL and cultured for 7 to 10 days until high titres of HIV-1 we detected in the supernatant by p24 ELISA assay. […]

[3] = system: HIV-1 isolate SF162 in primary human fetal microglia; test: p24 ELISA, HIV replication in SF162 infected microglia; conditions: Microglia/SF; for p24 pg/mL Day 5 after infection: HIV control 267.99; for p24 pg/mL Day 10 after infection: HIV control 209.18
Protocol: as §1, §2
2.5×10^5 microglial or astrocytic cells were plated per well into 6-we plates. The next day, cells were washed and refed with fresh medium. 2×10^4 p2units of either SF 162 or JR-FL virus was added per well in a total of 1 ml of vir inoculum. In control experiments, the virus was not added. Cells were incubated with virus overnight at 37° C., washed extensively with PBS, and refed with […] fresh medium. […] 500 μl of medium were removed at the indicated times following infection and stored at −70° C. for later analysis. Each time medium was removed, a volume amount of fresh medium was added. In control experiments IB-MECA and Cl-IB-MECA were omitted.
ELISA assay to detect the HIV-1 viral core protein, p24, was performed of 50 μl of the collected supernatant utilizing the commercially available p24 ELISA Kit (NEN/Dupont) according to the manufacturer's instructions.

Structure (SMILES)	p24 pg/mL Day 5 [1]	amount of p24 protein in culture medium from HIV infected cells in comparison to untreated HIV controls [1]	p24 pg/mL Day 5 [2]	p24 pg/mL Day 5 after infection ([3]; 0.01 (μM))	p24 pg/mL Day 10 after infection ([3]; 0.01 (μM))	p24 pg/mL Day 5 after infection ([3]; 0.1)	p24 pg/mL Day 10 after infection ([3]; 0.1)
CNC(=O)[C@H]1O[C@@H](n2cnc3c(NCc4cccc(I)c4)nc(Cl)nc32)[C@H](O)[C@@H]1O [Cl-IB-MECA]	8.45 pg/mL	significantly reduced	288.77 pg/mL	127.03 pg/mL	111.05 pg/mL	10.81 pg/mL	80.37 pg/mL
CNC(=O)[C@H]1O[C@@H](n2cnc3c(NCc4cccc(I)c4)ncnc32)[C@H](O)[C@@H]1O [IB-MECA, 1-deoxy-1-{6-[({3-iodophenyl}methyl)amino]-9H-purine-9-yl}-N-methyl-β-D-ribofuranuron-amide]	3.02 pg/mL	significantly reduced	137.58 pg/mL	81.33 pg/mL	62.79 pg/mL	82.29 pg/mL	54.80 pg/mL
